Measurements reported in patent US12391648B2, “Pyridyloxy thioester derivative and preparation method therefor, herbicidal composition, and application” (Qingdao Kingagroot Chemical Compound Co., Ltd., priority 2018, dated 2025).

Experiments:
Test in all cases: Post-emergence test experiment (Table 3, 1000 g/ha)
Format in all cases: in vivo
Conditions in all cases: post-emergence spray, after 3 weeks, fresh weight inhibition
Abutilon theophrasti = system: Abutilon theophrasti
Excerpt: (§1) The activity level standard of harmful plants destruction (i. e. growth inhibition rate) is as follows: • Level 5: the growth inhibition rate is greater than 85%; • Level 4: the growth inhibition rate is equal to or greater than 60% and less than 85%; • Level 3: the growth inhibition rate is equal to or greater than 40% and less than 60%; • Level 2: the growth inhibition rate is equal to or greater than 20% and less than 40%; • Level 1: the growth inhibition rate is equal to or greater than 5% and less than 20%; • Level 0: the growth inhibition rate is less than 5%;
(§2) The above described growth inhibition rate is fresh weight inhibition rate.
(§3) Post-emergence test experiment: Monocotyledonous and dicotyledonous weed seeds and main crop seeds (i. e. wheat, corn, rice, soybean, cotton, oilseed, millet and sorghum.) were put into a plastic pot loaded with soil. Then covered with 0.5-2 cm soil, the seeds were allowed to grow in good greenhouse environment. The test plants were treated at 2-3 leaf stage 2 weeks after sowing. The test compounds of the invention were dissolved with acetone respectively, then added with tween-80, and using 1.5 liters per hectare of an emulsible concentrate of methyl oleate as a synergist, and diluted by certain amount of water to certain concentration. The solution was sprayed to the plants with a sprayer. Then the plants were cultured for 3 weeks in the greenhouse, and the experiment result of weed controlling effect after 3 weeks was listed in tables 3-4.

Digitaria sanguinalis = system: Digitaria sanguinalis
Excerpt: as §1, §2, §3

Galium spurium = system: Galium spurium
Excerpt: as §1, §2, §3

Leptochloa chinensis = system: Leptochloa chinensis
Excerpt: as §1, §2, §3

Monochoria vaginalis = system: Monochoria vaginalis
Excerpt: as §1, §2, §3

Setaria viridis = system: Setaria viridis
Excerpt: as §1, §2, §3

For `CSC(=O)C(C)Oc1nc(F)c(F)c(N)c1F` (stereo not drawn) [Compound 1], the “Activity level (growth inhibition rate) Abutilon theophrasti” value (Abutilon theophrasti) was 5 (Level 5: the growth inhibition rate is greater than 85%), the “Activity level (growth inhibition rate) Digitaria sanguinalis” value (Digitaria sanguinalis) was 5 (Level 5: the growth inhibition rate is greater than 85%) and the “Activity level (growth inhibition rate) Galium spurium” value (Galium spurium) was 5 (Level 5: the growth inhibition rate is greater than 85%). For the same compound, the “Activity level (growth inhibition rate) Leptochloa chinensis” value (Leptochloa chinensis) was 5 (Level 5: the growth inhibition rate is greater than 85%), the “Activity level (growth inhibition rate) Monochoria Vaginalis” value (Monochoria vaginalis) was 5 (Level 5: the growth inhibition rate is greater than 85%) and the “Activity level (growth inhibition rate) Setaria viridis” value (Setaria viridis) was 5 (Level 5: the growth inhibition rate is greater than 85%).
In the case of `CSC(=O)C(C)Oc1nc(Cl)c(Cl)c(N)c1Cl` (stereo not drawn) [Compound 2], the “Activity level (growth inhibition rate) Abutilon theophrasti” value (Abutilon theophrasti) is reported as 5 (Level 5: the growth inhibition rate is greater than 85%), the “Activity level (growth inhibition rate) Digitaria sanguinalis” value (Digitaria sanguinalis) is reported as 5 (Level 5: the growth inhibition rate is greater than 85%) and the “Activity level (growth inhibition rate) Galium spurium” value (Galium spurium) is reported as 5 (Level 5: the growth inhibition rate is greater than 85%). For the same compound, the “Activity level (growth inhibition rate) Leptochloa chinensis” value (Leptochloa chinensis) was 5 (Level 5: the growth inhibition rate is greater than 85%), the “Activity level (growth inhibition rate) Monochoria Vaginalis” value (Monochoria vaginalis) was 5 (Level 5: the growth inhibition rate is greater than 85%) and the “Activity level (growth inhibition rate) Setaria viridis” value (Setaria viridis) was 5 (Level 5: the growth inhibition rate is greater than 85%).
With `CC(C)=NOCCSC(=O)C(C)Oc1nc(C)c(Cl)c(N)c1Cl` (stereo not drawn) [Compound 5] the “Activity level (growth inhibition rate) Abutilon theophrasti” value (Abutilon theophrasti) was 5 (Level 5: the growth inhibition rate is greater than 85%), the “Activity level (growth inhibition rate) Digitaria sanguinalis” value (Digitaria sanguinalis) was 5 (Level 5: the growth inhibition rate is greater than 85%) and the “Activity level (growth inhibition rate) Galium spurium” value (Galium spurium) was 5 (Level 5: the growth inhibition rate is greater than 85%). For the same compound, the “Activity level (growth inhibition rate) Leptochloa chinensis” value (Leptochloa chinensis) was 5 (Level 5: the growth inhibition rate is greater than 85%), the “Activity level (growth inhibition rate) Monochoria Vaginalis” value (Monochoria vaginalis) was 5 (Level 5: the growth inhibition rate is greater than 85%) and the “Activity level (growth inhibition rate) Setaria viridis” value (Setaria viridis) was 5 (Level 5: the growth inhibition rate is greater than 85%).
In the case of `CSC(=O)C(Oc1nc(F)c(Cl)c(N)c1Cl)[N+](=O)[O-]` (stereo not drawn) [Compound 49], the “Activity level (growth inhibition rate) Abutilon theophrasti” value (Abutilon theophrasti) is reported as 5 (Level 5: the growth inhibition rate is greater than 85%), the “Activity level (growth inhibition rate) Galium spurium” value (Galium spurium) is reported as 5 (Level 5: the growth inhibition rate is greater than 85%) and the “Activity level (growth inhibition rate) Monochoria Vaginalis” value (Monochoria vaginalis) is reported as 5 (Level 5: the growth inhibition rate is greater than 85%).
In the case of `COC(Oc1nc(F)c(Cl)c(N)c1Cl)C(=O)SC` (stereo not drawn) [Compound 50], the “Activity level (growth inhibition rate) Abutilon theophrasti” value (Abutilon theophrasti) is reported as 5 (Level 5: the growth inhibition rate is greater than 85%), the “Activity level (growth inhibition rate) Galium spurium” value (Galium spurium) is reported as 5 (Level 5: the growth inhibition rate is greater than 85%) and the “Activity level (growth inhibition rate) Monochoria Vaginalis” value (Monochoria vaginalis) is reported as 5 (Level 5: the growth inhibition rate is greater than 85%).
`CSC(=O)C(C=O)Oc1nc(F)c(Cl)c(N)c1Cl` (stereo not drawn) [Compound 51] was tested, and the “Activity level (growth inhibition rate) Abutilon theophrasti” value (Abutilon theophrasti) was 5 (Level 5: the growth inhibition rate is greater than 85%), the “Activity level (growth inhibition rate) Galium spurium” value (Galium spurium) was 5 (Level 5: the growth inhibition rate is greater than 85%) and the “Activity level (growth inhibition rate) Monochoria Vaginalis” value (Monochoria vaginalis) was 5 (Level 5: the growth inhibition rate is greater than 85%).
`COC(=O)C(Oc1nc(F)c(Cl)c(N)c1Cl)C(=O)SC` (stereo not drawn) [Compound 52] was tested, and the “Activity level (growth inhibition rate) Abutilon theophrasti” value (Abutilon theophrasti) was 5 (Level 5: the growth inhibition rate is greater than 85%), the “Activity level (growth inhibition rate) Galium spurium” value (Galium spurium) was 5 (Level 5: the growth inhibition rate is greater than 85%) and the “Activity level (growth inhibition rate) Monochoria Vaginalis” value (Monochoria vaginalis) was 5 (Level 5: the growth inhibition rate is greater than 85%).
`CSC(=O)C(Oc1nc(F)c(Cl)c(N)c1Cl)c1cccs1` (stereo not drawn) [Compound 53] was tested, and the “Activity level (growth inhibition rate) Abutilon theophrasti” value (Abutilon theophrasti) was 5 (Level 5: the growth inhibition rate is greater than 85%), the “Activity level (growth inhibition rate) Galium spurium” value (Galium spurium) was 5 (Level 5: the growth inhibition rate is greater than 85%) and the “Activity level (growth inhibition rate) Monochoria Vaginalis” value (Monochoria vaginalis) was 5 (Level 5: the growth inhibition rate is greater than 85%).
In the case of `CSC(=O)C(Oc1nc(F)c(Cl)c(N)c1Cl)c1ccco1` (stereo not drawn) [Compound 54], the “Activity level (growth inhibition rate) Abutilon theophrasti” value (Abutilon theophrasti) is reported as 5 (Level 5: the growth inhibition rate is greater than 85%), the “Activity level (growth inhibition rate) Galium spurium” value (Galium spurium) is reported as 5 (Level 5: the growth inhibition rate is greater than 85%) and the “Activity level (growth inhibition rate) Monochoria Vaginalis” value (Monochoria vaginalis) is reported as 5 (Level 5: the growth inhibition rate is greater than 85%).
With `CSC(=O)C(Oc1nc(F)c(Cl)c(N)c1Cl)c1cscn1` (stereo not drawn) [Compound 55] the “Activity level (growth inhibition rate) Abutilon theophrasti” value (Abutilon theophrasti) was 5 (Level 5: the growth inhibition rate is greater than 85%), the “Activity level (growth inhibition rate) Galium spurium” value (Galium spurium) was 5 (Level 5: the growth inhibition rate is greater than 85%) and the “Activity level (growth inhibition rate) Monochoria Vaginalis” value (Monochoria vaginalis) was 5 (Level 5: the growth inhibition rate is greater than 85%).
In the case of `CCn1nccc1C(Oc1nc(F)c(Cl)c(N)c1Cl)C(=O)SC` (stereo not drawn) [Compound 56], the “Activity level (growth inhibition rate) Abutilon theophrasti” value (Abutilon theophrasti) is reported as 5 (Level 5: the growth inhibition rate is greater than 85%), the “Activity level (growth inhibition rate) Galium spurium” value (Galium spurium) is reported as 5 (Level 5: the growth inhibition rate is greater than 85%) and the “Activity level (growth inhibition rate) Monochoria Vaginalis” value (Monochoria vaginalis) is reported as 5 (Level 5: the growth inhibition rate is greater than 85%).
With `CSC(=O)C(Oc1nc(F)c(Cl)c(N)c1Cl)c1cn(C)nc1C` (stereo not drawn) [Compound 57] the “Activity level (growth inhibition rate) Abutilon theophrasti” value (Abutilon theophrasti) was 5 (Level 5: the growth inhibition rate is greater than 85%), the “Activity level (growth inhibition rate) Galium spurium” value (Galium spurium) was 5 (Level 5: the growth inhibition rate is greater than 85%) and the “Activity level (growth inhibition rate) Monochoria Vaginalis” value (Monochoria vaginalis) was 5 (Level 5: the growth inhibition rate is greater than 85%).
With `CSC(=O)C(Oc1nc(F)c(Cl)c(N)c1Cl)c1cnn(C(F)F)c1` (stereo not drawn) [Compound 58] the “Activity level (growth inhibition rate) Abutilon theophrasti” value (Abutilon theophrasti) was 5 (Level 5: the growth inhibition rate is greater than 85%), the “Activity level (growth inhibition rate) Galium spurium” value (Galium spurium) was 5 (Level 5: the growth inhibition rate is greater than 85%) and the “Activity level (growth inhibition rate) Monochoria Vaginalis” value (Monochoria vaginalis) was 5 (Level 5: the growth inhibition rate is greater than 85%).
In the case of `CSC(=O)C(Oc1nc(F)c(Cl)c(N)c1Cl)c1ccccc1` (stereo not drawn) [Compound 59], the “Activity level (growth inhibition rate) Abutilon theophrasti” value (Abutilon theophrasti) is reported as 5 (Level 5: the growth inhibition rate is greater than 85%), the “Activity level (growth inhibition rate) Galium spurium” value (Galium spurium) is reported as 5 (Level 5: the growth inhibition rate is greater than 85%) and the “Activity level (growth inhibition rate) Monochoria Vaginalis” value (Monochoria vaginalis) is reported as 5 (Level 5: the growth inhibition rate is greater than 85%).
In the case of `CCSC(=O)C(Oc1nc(F)c(Cl)c(N)c1Cl)c1ccc(C(F)(F)F)cc1` (stereo not drawn) [Compound 60], the “Activity level (growth inhibition rate) Abutilon theophrasti” value (Abutilon theophrasti) is reported as 5 (Level 5: the growth inhibition rate is greater than 85%), the “Activity level (growth inhibition rate) Galium spurium” value (Galium spurium) is reported as 5 (Level 5: the growth inhibition rate is greater than 85%) and the “Activity level (growth inhibition rate) Monochoria Vaginalis” value (Monochoria vaginalis) is reported as 5 (Level 5: the growth inhibition rate is greater than 85%).
`CSC(=O)C(Oc1nc(F)c(Cl)c(N)c1Cl)c1cccc(Cl)c1` (stereo not drawn) [Compound 61] was tested, and the “Activity level (growth inhibition rate) Abutilon theophrasti” value (Abutilon theophrasti) was 5 (Level 5: the growth inhibition rate is greater than 85%), the “Activity level (growth inhibition rate) Galium spurium” value (Galium spurium) was 5 (Level 5: the growth inhibition rate is greater than 85%) and the “Activity level (growth inhibition rate) Monochoria Vaginalis” value (Monochoria vaginalis) was 5 (Level 5: the growth inhibition rate is greater than 85%).
In the case of `COc1ccc(C(Oc2nc(F)c(Cl)c(N)c2Cl)C(=O)SC)c(C)c1` (stereo not drawn) [Compound 62], the “Activity level (growth inhibition rate) Abutilon theophrasti” value (Abutilon theophrasti) is reported as 5 (Level 5: the growth inhibition rate is greater than 85%), the “Activity level (growth inhibition rate) Galium spurium” value (Galium spurium) is reported as 5 (Level 5: the growth inhibition rate is greater than 85%) and the “Activity level (growth inhibition rate) Monochoria Vaginalis” value (Monochoria vaginalis) is reported as 5 (Level 5: the growth inhibition rate is greater than 85%).
In the case of `CSC(=O)C(Oc1nc(F)c(Cl)c(N)c1Cl)c1cccnc1` (stereo not drawn) [Compound 63], the “Activity level (growth inhibition rate) Abutilon theophrasti” value (Abutilon theophrasti) is reported as 5 (Level 5: the growth inhibition rate is greater than 85%), the “Activity level (growth inhibition rate) Galium spurium” value (Galium spurium) is reported as 5 (Level 5: the growth inhibition rate is greater than 85%) and the “Activity level (growth inhibition rate) Monochoria Vaginalis” value (Monochoria vaginalis) is reported as 5 (Level 5: the growth inhibition rate is greater than 85%).
For `CSC(=O)C(Oc1nc(F)c(Cl)c(N)c1Cl)c1cncnc1` (stereo not drawn) [Compound 64], the “Activity level (growth inhibition rate) Abutilon theophrasti” value (Abutilon theophrasti) was 5 (Level 5: the growth inhibition rate is greater than 85%), the “Activity level (growth inhibition rate) Galium spurium” value (Galium spurium) was 5 (Level 5: the growth inhibition rate is greater than 85%) and the “Activity level (growth inhibition rate) Monochoria Vaginalis” value (Monochoria vaginalis) was 5 (Level 5: the growth inhibition rate is greater than 85%).
`CSC(=O)C(Oc1nc(F)c(Cl)c(N)c1Cl)c1ccc2ccccc2c1` (stereo not drawn) [Compound 65] was tested, and the “Activity level (growth inhibition rate) Abutilon theophrasti” value (Abutilon theophrasti) was 5 (Level 5: the growth inhibition rate is greater than 85%), the “Activity level (growth inhibition rate) Galium spurium” value (Galium spurium) was 5 (Level 5: the growth inhibition rate is greater than 85%) and the “Activity level (growth inhibition rate) Monochoria Vaginalis” value (Monochoria vaginalis) was 5 (Level 5: the growth inhibition rate is greater than 85%).
For `CSC(=O)C(Cc1ccccc1)Oc1nc(F)c(Cl)c(N)c1Cl` (stereo not drawn) [Compound 126], the “Activity level (growth inhibition rate) Abutilon theophrasti” value (Abutilon theophrasti) was 5 (Level 5: the growth inhibition rate is greater than 85%), the “Activity level (growth inhibition rate) Galium spurium” value (Galium spurium) was 5 (Level 5: the growth inhibition rate is greater than 85%) and the “Activity level (growth inhibition rate) Monochoria Vaginalis” value (Monochoria vaginalis) was 5 (Level 5: the growth inhibition rate is greater than 85%).
